# According to patent US10023593B2, “ALK kinase inhibitor, and preparation method and uses thereof” (BEIJING PEARL BIOTECHNOLOGY LIMITED LIABILITY COMPANY, priority 2014, dated 2018):
# How the values were obtained:
# Wild Type ALK kinase = biological target: T1, Wild Type ALK kinase (Homo sapiens, UniProt Q9UM73); assay: HTRF KinEASE-TK assay, inhibitory activity on wild type ALK kinase; format: biochemical; details: wild type ALK 1 ng/μl, substrate 1 μM, 30° C. 35 minutes, read-out: Inhibition on ALK kinases (wildtype), IC50
# T1 construct: purchased Sino-US Crown Bioscience, Inc. batch number ALK 20110607
# Outline: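 ALK kinase at 1 ng/μl and substrate at 1 μM were reacted with compound (1% DMSO) in buffer with 5 mM MgCl2 and 1 mM DTT for 35 min at 30 °C. HTRF detection used the 665/615 ratio, normalised to no-compound wells and to 10.4 μM LDK-378 wells. IC50 came from a concentration-response fit.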
# Karpas-299 cell line = assay: CellTiter-Glo cell proliferation inhibition on Karpas-299 cell line; format: cell-based; details: Homo sapiens, 96 h, Karpas-299 cells, 5000 cells/well, 4 days drug treatment
# Outline: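 CellTiter-Glo luminescence measured after 4-day compound exposure (0.5% DMSO final) of Karpas-299 cells seeded at 5000/well in RPMI-1640 with 10% FBS, 37 °C, 5% CO2. IC50 derived from percent inhibition relative to vehicle wells.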
# T1 sequence (Q9UM73 19-1620): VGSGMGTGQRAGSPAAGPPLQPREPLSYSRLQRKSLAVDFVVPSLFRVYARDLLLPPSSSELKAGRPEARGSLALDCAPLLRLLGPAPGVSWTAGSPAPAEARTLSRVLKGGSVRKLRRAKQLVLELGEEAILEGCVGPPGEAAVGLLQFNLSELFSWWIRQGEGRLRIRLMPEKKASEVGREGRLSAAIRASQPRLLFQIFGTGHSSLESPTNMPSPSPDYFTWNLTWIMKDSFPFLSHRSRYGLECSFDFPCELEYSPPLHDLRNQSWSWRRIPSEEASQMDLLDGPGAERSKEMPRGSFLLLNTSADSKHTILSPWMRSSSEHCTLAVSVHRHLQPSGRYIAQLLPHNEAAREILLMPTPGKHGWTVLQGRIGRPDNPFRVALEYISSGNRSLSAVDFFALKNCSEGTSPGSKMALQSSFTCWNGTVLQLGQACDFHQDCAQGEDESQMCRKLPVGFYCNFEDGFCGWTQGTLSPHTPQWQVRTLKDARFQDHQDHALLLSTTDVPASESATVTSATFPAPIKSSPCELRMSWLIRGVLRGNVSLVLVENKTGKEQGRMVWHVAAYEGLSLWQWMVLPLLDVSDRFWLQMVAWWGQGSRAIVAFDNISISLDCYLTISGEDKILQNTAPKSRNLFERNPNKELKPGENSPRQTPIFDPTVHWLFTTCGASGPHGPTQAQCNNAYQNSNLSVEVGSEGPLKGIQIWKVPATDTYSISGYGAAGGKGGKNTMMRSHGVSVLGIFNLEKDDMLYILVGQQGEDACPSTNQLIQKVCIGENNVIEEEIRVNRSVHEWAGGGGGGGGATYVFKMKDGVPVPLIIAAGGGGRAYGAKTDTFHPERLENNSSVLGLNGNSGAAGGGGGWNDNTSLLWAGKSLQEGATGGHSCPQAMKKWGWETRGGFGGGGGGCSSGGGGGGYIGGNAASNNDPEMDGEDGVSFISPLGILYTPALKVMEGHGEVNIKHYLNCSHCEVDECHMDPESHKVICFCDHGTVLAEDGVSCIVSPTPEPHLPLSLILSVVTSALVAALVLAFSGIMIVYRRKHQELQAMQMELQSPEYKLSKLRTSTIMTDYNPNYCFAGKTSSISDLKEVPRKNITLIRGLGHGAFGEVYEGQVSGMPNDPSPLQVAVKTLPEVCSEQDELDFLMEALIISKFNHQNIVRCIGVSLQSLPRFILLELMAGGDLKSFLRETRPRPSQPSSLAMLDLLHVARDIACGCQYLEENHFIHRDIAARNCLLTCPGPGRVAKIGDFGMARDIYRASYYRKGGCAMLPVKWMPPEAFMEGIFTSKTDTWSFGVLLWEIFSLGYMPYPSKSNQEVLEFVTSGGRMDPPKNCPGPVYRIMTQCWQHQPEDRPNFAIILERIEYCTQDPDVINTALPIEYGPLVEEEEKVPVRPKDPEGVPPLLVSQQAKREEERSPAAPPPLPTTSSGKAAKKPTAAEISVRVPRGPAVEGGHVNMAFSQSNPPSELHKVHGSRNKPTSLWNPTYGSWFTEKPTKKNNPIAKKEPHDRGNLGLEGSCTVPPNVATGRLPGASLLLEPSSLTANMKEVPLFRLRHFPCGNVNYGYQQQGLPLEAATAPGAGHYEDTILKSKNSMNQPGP
Compound,IC50 (Wild Type ALK kinase) [nM],IC50 (Karpas-299 cell line) [nM]
Cc1cc(Nc2ncc(Cl)c(Nc3cn(C)nc3S(=O)(=O)C(C)C)n2)c(OC2CC2)cc1C1CCN(C)CC1(F)F (stereo not drawn) [Final product 88],6,17
Cc1cc(Nc2ncc(Cl)c(Nc3cn(C)nc3S(=O)(=O)C(C)C)n2)c(OC(C)C)cc1C1CCNCC1 [Final product 2],6,16
Cc1cc(Nc2ncc(Cl)c(Nc3cn(C)nc3S(=O)(=O)C(C)C)n2)c(OC2CC2)cc1C1CCN(C)CC1C (stereo not drawn) [Final product 90],1,5
COCC1CC(c2cc(OC3CC3)c(Nc3ncc(Cl)c(Nc4cn(C)nc4S(=O)(=O)C(C)C)n3)cc2C)CCN1C (stereo not drawn) [Final product 77],2,4
Cc1cc(Nc2ncc(Cl)c(Nc3cn(C)nc3S(=O)(=O)C(C)C)n2)c(OC2CC2)cc1C1CCN(C)CC1F (stereo not drawn) [Final product 87],6,13
Cc1cc(Nc2ncc(Cl)c(Nc3cn(C)nc3S(=O)(=O)CC(C)C)n2)c(OC2CC2)cc1C1CCN(C)CC1 [Final product 57],7,12
Cc1cc(Nc2ncc(Cl)c(Nc3cn(C4CC4)nc3S(=O)(=O)C(C)C)n2)c(OC(C)C)cc1C1CCN(C)CC1 [Final product 81],11,27
COC1CN(C)CCC1c1cc(OC2CC2)c(Nc2ncc(Cl)c(Nc3cn(C)nc3S(=O)(=O)C(C)C)n2)cc1C (stereo not drawn) [Final product 58],4,11
"CC(C)Oc1cc(C2CCNCC2)ccc1Nc1ncc(Cl)c(Nc2cn(C)nc2S(=O)(=O)C(C)C)n1 [Final product 1, 5-chloro-N^2-[2-isopropoxy-4-(piperidin-4-yl)phenyl]-N^4-(3-isopropylsulfonyl-1-methyl-1H-pyrazol-4-yl)pyrimidin-2,4-diamine]",4,10
Cc1cc(Nc2ncc(Cl)c(Nc3cn(C)nc3S(=O)(=O)C(C)C)n2)c(OC2CC2)cc1C1CCN(C)C1 (stereo not drawn) [Final product 53],3,16
Cc1cc(Nc2ncc(Cl)c(Nc3cn(C)nc3S(=O)(=O)CC(C)C)n2)c(OC2CC2)cc1C1CN(C)C1 [Final product 55],4,25
"Cc1cc(Nc2ncc(Cl)c(Nc3cn(C)nc3S(=O)(=O)C(C)C)n2)c(OC2CC2)cc1C1CCC(NS(C)(=O)=O)CC1 (stereo not drawn) [Final product 205, N-(4-(4-(5-chloro-4-(3-(isopropylsulfonyl)-1-methyl-1H-pyrazol-4-amine)pyrimidin-2-amine)-5-cyclopropoxy-2-methylphenyl)cyclohexyl)methanesulfonamide]",–,18
Cc1cc(Nc2ncc(Cl)c(Nc3cn(C)nc3S(=O)(=O)C(C)C)n2)c(OC2CC2)cc1C1CN(C)C1 [Final product 54],3,7
Cc1cc(Nc2ncc(Cl)c(Nc3cn(C4CC4)nc3S(=O)(=O)C(C)C)n2)c(OC2CC2)cc1C1CCN(C)CC1 [Final product 56],5,21
Cc1cc(Nc2ncc(Cl)c(Nc3cn(C)nc3S(=O)(=O)C(C)C)n2)c(OC(C)C)cc1C1CCNC1 (stereo not drawn) [Final product 3],4,28
COCC1CC(c2cc(OC3CC3)c(Nc3ncc(Cl)c(Nc4cn(C)nc4S(=O)(=O)CC(C)C)n3)cc2C)CCN1C (stereo not drawn) [Final product 79],3,12
COCCN1CCC(c2cc(OC3CC3)c(Nc3ncc(Cl)c(Nc4cn(C)nc4S(=O)(=O)C(C)C)n3)cc2C)CC1 [Final product 82],4,14
